Experimental findings from US9650340B2, “5-fluoro-N-(pyridin-2-yl)pyridin-2-amine derivatives containing a sulfoximine group” (BAYER PHARMA AKTIENGESELLSCHAFT, priority 2012, dated 2017) are described below.

Molecules are shown by their SMILES. Structures can show the parent of a compound that is named as a salt. Where two headings read alike, the source gives them in different places.

Experiment [1] has as its system DU 145, hormone-independent human prostate carcinoma cells. Put plainly: Proliferation assay, DU145 (crystal violet). To be noted: DU145, 4 days, read-out: Inhibition of DU145 cell proliferation IC50. The format is cell-based. The method, then: (§1) Cultivated tumour cells (HeLa, human cervical tumour cells, ATCC CCL-2; NCI-H460, human non-small cell lung carcinoma cells, ATCC HTB-177; A2780, human ovarian carcinoma cells, ECACC #93112519; DU 145, hormone-independent human prostate carcinoma cells, ATCC HTB-81; HeLa-MaTu-ADR, multidrug-resistant human cervical carcinoma cells, EPO-GmbH Berlin; Caco-2, human colorectal carcinoma cells, ATCC HTB-37; B16F10, mouse melanoma cells, ATCC CRL-6475) were plated at a density of 5,000 cells/well (DU145, HeLa-MaTu-ADR), 3,000 cells/well (NCI-H460, HeLa), 2,500 cells/well (A2780), 1,500 cells/well (Caco-2), or 1,000 cells/well (B16F10) in a 96-well multititer plate in 200 μL of their respective growth medium supplemented 10% fetal calf serum. After 24 hours, the cells of one plate (zero-point plate) were stained with crystal violet (see below), while the medium of the other plates was replaced by fresh culture medium (200 μl), to which the test substances were added in various concentrations (0 μM, as well as in the range of 0.001-10 μM; the final concentration of the solvent dimethyl sulfoxide was 0.5%). The cells were incubated for 4 days in the presence of test substances. Cell proliferation was determined by staining the cells with crystal violet: the cells were fixed by adding 20 μl/measuring point of an 11% glutaric aldehyde solution for 15 minutes at room temperature. After three washing cycles of the fixed cells with water, the plates were dried at room temperature. The cells were stained by adding 100 μl/measuring point of a 0.1% crystal violet solution (pH 3.0). After three washing cycles of the stained cells with water, the plates were dried at room temperature. The dye was dissolved by adding 100 μl/measuring point of a 10% acetic acid solution. The extinction was determined by photometry at a wavelength of 595 nm. The change of cell number, in percent, was calculated by normalization of the measured values to the extinction values of the zero-point plate (=0%) and the extinction of the untreated (0 μm) cells (=100%). The IC50 values (inhibitory concentration at 50% of maximal effect) were determined by means of a 4 parameter fit. Non-adherent MOLM-13 human acute myeloid leukemia cells (DSMZ ACC 554) were seeded at a density of 5,000 cells/well in a 96-well multititer plate in 100 μL of growth medium supplemented 10% fetal calf serum. After 24 hours, cell viability of one plate (zero-point plate) was determined with the Cell Titre-Glo Luminescent Cell Viability Assay (Promega), while 50 μL of test compound containing medium was added to the wells of the other plates (final concentrations in the range of 0.001-10 μM and DMSO controls; the final concentration of the solvent dimethyl sulfoxide was 0.5%). Cell viability was assessed after 72-hour exposure with the Cell Titre-Glo Luminescent Cell Viability Assay (Promega).

Experiment [2] relates to HeLa, human cervical tumour cells. Description: Proliferation assay, HeLa (crystal violet). To be noted: 4 days, read-out: Inhibition of HeLa cell proliferation IC50. The format is cell-based. The procedure: as §1
Experiment [3] relates to NCI-H460, human non-small cell lung carcinoma cells. Description: Proliferation assay, NCI-H460 (crystal violet). In kind it is cell-based. As to conditions: NCI-H460, 4 days, read-out: Inhibition of NCI-H460 cell proliferation IC50. The procedure:
as §1

In a further experiment the target is T1, CDK9/CycT1 (Homo sapiens, UniProt P50750).
T1 construct: Recombinant full-length His-tagged human CDK9 and CycT1; His; purchased Invitrogen PV4131; host or cells: insect cells
T1 sequence (P50750 whole entry): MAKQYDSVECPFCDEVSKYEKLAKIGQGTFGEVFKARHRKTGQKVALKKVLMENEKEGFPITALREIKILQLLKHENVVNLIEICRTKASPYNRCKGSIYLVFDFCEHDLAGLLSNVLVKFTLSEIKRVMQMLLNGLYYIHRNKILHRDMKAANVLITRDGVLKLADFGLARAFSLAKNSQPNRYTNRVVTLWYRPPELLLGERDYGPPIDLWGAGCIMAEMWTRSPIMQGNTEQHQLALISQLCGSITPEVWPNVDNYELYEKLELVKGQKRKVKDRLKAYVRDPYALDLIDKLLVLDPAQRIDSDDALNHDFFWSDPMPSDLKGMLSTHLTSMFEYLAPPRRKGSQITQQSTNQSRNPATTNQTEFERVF
T1 sequence (O60563 whole entry partner): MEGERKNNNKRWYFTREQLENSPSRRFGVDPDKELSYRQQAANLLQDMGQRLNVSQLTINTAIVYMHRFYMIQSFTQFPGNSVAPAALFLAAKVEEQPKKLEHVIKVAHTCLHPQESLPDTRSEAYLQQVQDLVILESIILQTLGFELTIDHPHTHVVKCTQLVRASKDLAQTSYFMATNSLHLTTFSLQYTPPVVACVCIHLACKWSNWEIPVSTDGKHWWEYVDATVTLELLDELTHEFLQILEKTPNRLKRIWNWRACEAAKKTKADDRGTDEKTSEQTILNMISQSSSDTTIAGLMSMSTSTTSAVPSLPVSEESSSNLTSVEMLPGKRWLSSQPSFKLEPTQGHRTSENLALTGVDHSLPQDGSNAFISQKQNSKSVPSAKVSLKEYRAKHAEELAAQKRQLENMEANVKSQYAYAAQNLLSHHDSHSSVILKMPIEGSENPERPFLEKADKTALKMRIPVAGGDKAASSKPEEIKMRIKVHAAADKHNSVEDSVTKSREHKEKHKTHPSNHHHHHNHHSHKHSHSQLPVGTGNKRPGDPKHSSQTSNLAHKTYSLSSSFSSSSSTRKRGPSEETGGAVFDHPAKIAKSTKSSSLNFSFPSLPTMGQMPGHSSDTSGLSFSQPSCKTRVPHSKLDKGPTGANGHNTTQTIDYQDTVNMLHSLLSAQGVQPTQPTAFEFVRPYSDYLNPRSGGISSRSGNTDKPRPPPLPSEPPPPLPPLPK
Description: CDK9/CycT1 high ATP kinase assay (TR-FRET, 2 mM ATP). The format is biochemical. As to conditions: Method 1b. The procedure:
1b. CDK9/CyeT1 High ATP Kinase Assay
CDK9/CycT1-inhibitory activity of compounds of the present invention at a high ATP concentration after preincubation of enzyme and test compounds was quantified employing the CDK9/CycT1 TR-FRET assay as described in the following paragraphs.
Recombinant full-length His-tagged human CDK9 and CycT1, expressed in insect cells and purified by Ni-NTA affinity chromatography, were purchase from Invitrogen (Cat. No PV4131). As substrate for the kinase reaction biotinylated peptide biotin-Ttds-[…] (C-terminus in amid form) was used which can be purchased e.g. form the company JERINI peptide technologies (Berlin, Germany). For the assay 50 nl of a 100 fold concentrated solution of the test compound in DMSO was pipetted into a black low volume 384 well microtiter plate (Greiner Bio-One, Frickenhausen, Germany), 2 μl of a solution of CDK9/CycT1 in aqueous assay buffer [50 mM Tris/HCl pH 8.0, 10 mM MgCl2, 1.0 mM dithiothreitol, 0.1 mM sodium ortho-vanadate, 0.01% (v/v) Nonidet-P40 (Sigma)] were added and the mixture was incubated for 15 min at 22° C. to allow pre-binding of the test compounds to the enzyme before the start of the kinase reaction. Then the kinase reaction was started by the addition of 3 μl of a solution of adenosine-tri-phosphate (ATP, 3.3 mM=>final conc. in the 5 μl assay volume is 2 mM) and substrate (1.67 μM=>final conc. in the 5 μl assay volume is 1 μM) in assay buffer and the resulting mixture was incubated for a reaction time of 25 min at 22° C.
The resulting mixture was incubated 1 h at 22° C. to allow the formation of complex between the phosphorylated biotinylated peptide and the detection reagents. Subsequently the amount of phosphorylated substrate was evaluated by measurement of the resonance energy transfer from the Eu-chelate to the streptavidine-XL. Therefore, the fluorescence emissions at 620 nm and 665 nm after excitation at 350 nm was measured in a HTRF reader, e.g. a Rubystar (BMG Labtechnologies, Offenburg, Germany) or a Viewlux (Perkin-Elmer). The ratio of the emissions at 665 nm and at 622 nm was taken as the measure for the amount of phosphorylated substrate.

Consider `COc1cc(F)ccc1-c1cc(Nc2cc(CS(C)(=N)=O)ccn2)ncc1F` (racemic) [Example 1, (rac)-5-Fluoro-4-(4-fluoro-2-methoxyphenyl)-N-{4-[(S-methylsulfonimidoyl)methyl]pyridin-2-yl}pyridin-2-amine], for which the IC50 in experiment [1] (Homo sapiens, DU-145, 96 h) was 37 nM; in experiment [2] (Homo sapiens, 96 h), 95 nM; in experiment [3] (Homo sapiens, NCI-H460, 96 h), 62 nM.

In the case of `COc1cc(F)ccc1-c1cc(Nc2cc(CS(C)(=N)=O)cc(C)n2)ncc1F` (racemic) [Example 4, (rac)-5-Fluoro-4-(4-fluoro-2-methoxyphenyl)-N-{6-methyl-4-[(S-methylsulfonimidoyl)methyl]pyridin-2-yl}pyridin-2-amine], the IC50 in experiment [1] (Homo sapiens, DU-145, 96 h) was determined as 67 nM; against CDK9/CycT1, 2 nM; in experiment [2] (Homo sapiens, 96 h), 35 nM; in experiment [3] (Homo sapiens, NCI-H460, 96 h), 97 nM.

Regarding `COc1cc(F)ccc1-c1cc(Nc2cc(CS(C)(=N)=O)c(Br)c(C)n2)ncc1F` (racemic) [Example 5, (rac)-5-Bromo-N-[5-fluoro-4-(4-fluoro-2-methoxyphenyl)pyridin-2-yl]-6-methyl-4-[(S-methylsulfonimidoyl)methyl]pyridin-2-amine], the IC50 in experiment [1] (Homo sapiens, DU-145, 96 h) came out at 110 nM; on CDK9/CycT1, 3 nM; in experiment [2] (Homo sapiens, 96 h) it was 93 nM; in experiment [3] (Homo sapiens, NCI-H460, 96 h) it was 120 nM.

As for `COc1cc(CS(C)(=N)=O)cc(Nc2cc(-c3ccc(F)cc3OC)c(F)cn2)n1` (racemic) [Example 6, (rac)-5-Fluoro-4-(4-fluoro-2-methoxyphenyl)-N-{6-methoxy-4-[(S-methylsulfonimidoyl)methyl]pyridin-2-yl}pyridin-2-amine], the IC50 worked out at 30 nM in experiment [1] (Homo sapiens, DU-145, 96 h); 1 nM against CDK9/CycT1; 21 nM in experiment [2] (Homo sapiens, 96 h); 33 nM in experiment [3] (Homo sapiens, NCI-H460, 96 h).

For the compound `COc1cc(F)ccc1-c1cc(Nc2cc(CS(C)(=N)=O)cc(Cl)n2)ncc1F` (racemic) [Example 7, (rac)-N-{6-Chloro-4-[(S-methylsulfonimidoyl)methyl]pyridin-2-yl}-5-fluoro-4-(4-fluoro-2-methoxyphenyl)pyridin-2-amine], the IC50 in experiment [1] (Homo sapiens, DU-145, 96 h) was 37 nM; on CDK9/CycT1 it was 2 nM; in experiment [2] (Homo sapiens, 96 h), 32 nM; in experiment [3] (Homo sapiens, NCI-H460, 96 h) it was 47 nM.

As to `COc1cc(F)ccc1-c1cc(Nc2cc(CS(=N)(=O)CCO)ccn2)ncc1F` (racemic) [Example 8, (rac)-2-{S-[(2-{[5-Fluoro-4-(4-fluoro-2-methoxyphenyl)pyridin-2-yl]amino}pyridin-4-yl)methyl]sulfonimidoyl}ethanol], the IC50 in experiment [1] (Homo sapiens, DU-145, 96 h) amounted to 110 nM; on CDK9/CycT1, 14 nM; in experiment [2] (Homo sapiens, 96 h), 140 nM; in experiment [3] (Homo sapiens, NCI-H460, 96 h) it was 290 nM.

For `COc1cc(F)ccc1-c1cc(Nc2cc(CS(=N)(=O)CCN)ccn2)ncc1F` (racemic) [Example 9, (rac)-N-(4-{[S-(2-Aminoethyl)sulfonimidoyl]methyl}pyridin-2-yl)-5-fluoro-4-(4-fluoro-2-methoxyphenyl)pyridin-2-amine], the IC50 on CDK9/CycT1 is 6 nM; in experiment [2] (Homo sapiens, 96 h), 410 nM.

Regarding `CCOC(=O)N=S(C)(=O)Cc1ccnc(Nc2cc(-c3ccc(F)cc3OC)c(F)cn2)c1` (racemic) [Example 11, (rac)-Ethyl{[(2-{[5-fluoro-4-(4-fluoro-2-methoxyphenyl)pyridin-2-yl]amino}pyridin-4-yl)methyl](methyl)oxido-λ^6-sulfanylidene}carbamate], the IC50 is 110 nM in experiment [1] (Homo sapiens, DU-145, 96 h); 1 nM against CDK9/CycT1; 72 nM in experiment [2] (Homo sapiens, 96 h); 110 nM in experiment [3] (Homo sapiens, NCI-H460, 96 h).

Take `COc1cc(F)ccc1-c1cc(Nc2cc(CS(C)(=N)=O)cc(C(F)F)n2)ncc1F` (racemic) [Example 31, (rac)-N-{6-(Difluoromethyl)-4-[(S-methylsulfonimidoyl)methyl]pyridin-2-yl}-5-fluoro-4-(4-fluoro-2-methoxyphenyl)pyridin-2-amine]: the IC50 against CDK9/CycT1 came to 1 nM; in experiment [2] (Homo sapiens, 96 h), 8 nM.

Take `COc1cc(F)ccc1-c1cc(Nc2cc(CS(C)(=N)=O)ccn2)ncc1F` (single isomer, unassigned; (+)) [Example 2, (+)-5-Fluoro-4-(4-fluoro-2-methoxyphenyl)-N-{4-[(S-methylsulfonimidoyl)methyl]pyridin-2-yl}pyridin-2-amine]: the IC50 in experiment [1] is 33 nM; in experiment [2], 110 nM; in experiment [3] it was 75 nM.

In the case of `COc1cc(F)ccc1-c1cc(Nc2cc(CS(C)(=N)=O)cc(F)n2)ncc1F` (single isomer, unassigned; (+)) [Example 19, (+)-5-Fluoro-4-(4-fluoro-2-methoxyphenyl)-N-{6-fluoro-4-[(S-methylsulfonimidoyl)methyl]pyridin-2-yl}pyridin-2-amine], the IC50 in experiment [1] (Homo sapiens, DU-145, 96 h) is 58 nM; against CDK9/CycT1, 19 nM; in experiment [3] (Homo sapiens, NCI-H460, 96 h), 110 nM.

On to `COc1cc(F)ccc1-c1cc(Nc2cc(CS(C)(=N)=O)ccn2)ncc1F` (single isomer, unassigned; (-)) [Example 3, (−)-5-Fluoro-4-(4-fluoro-2-methoxyphenyl)-N-{4-[(S-methylsulfonimidoyl)methyl]pyridin-2-yl}pyridin-2-amine], for which the IC50 in experiment [1] is 37 nM; in experiment [2] it was 100 nM; in experiment [3], 65 nM.

For the compound `COc1cc(F)ccc1-c1cc(Nc2cc(CS(C)(=N)=O)ccn2)ncc1F` (single isomer, unassigned; enantiomer 1) [Example 16, 5-Fluoro-4-(4-fluoro-2-methoxyphenyl)-N-{4-[(S-methylsulfonimidoyl)methyl]pyridin-2-yl}pyridin-2-amine hydrochloride; enantiomer 1], the IC50 came to 120 nM in experiment [1], 63 nM in experiment [2] and 130 nM in experiment [3].

Consider `COc1cc(F)ccc1-c1cc(Nc2cc(CS(C)(=N)=O)ccn2)ncc1F.Cl` (single isomer, unassigned; enantiomer 2) [Example 14, 5-Fluoro-4-(4-fluoro-2-methoxyphenyl)-N-{4-[(S-methylsulfonimidoyl)methyl]pyridin-2-yl}pyridin-2-amine hydrochloride; enantiomer 2], for which the IC50 worked out at 33 nM in experiment [1], 42 nM in experiment [2] and 30 nM in experiment [3].
